Measured values from patent US20240307415A1, “STEROID COMPOUND, AND PHARMACEUTICAL COMPOSITION THEREOF AND USE THEREOF” (JIANGSU SIMCERE PHARMACEUTICAL CO., LTD., priority 2021, published 2024).

Experiment: Membrane permeability and transport properties (Caco-2)
Format: in vitro ADME
Settings: human, pH 7.4, Caco-2, 10 μM
From the text: • 1. Caco-2 cells (ATCC) • 2. HEPES (Solarbio 804D049), penicillin/streptomycin (Solarbio 20200109), and PBS (Solarbio 20200620) • 3. Fetal Bovine Serum (FBS) (Sigma WXBD0055V), lucifer yellow (Sigma MKCJ3738), and NaHCO3 (Sigma SLBZ4647) • 4. Hank's balanced salt solution (HBSS) (Gibco 2085528), non-essential amino acid (NEAA) (Gibco 2211548), and Trypsin/EDTA (Gibco 2120732) • 5. High glucose DMEM (Corning 20319014) • 6. HTS Transwell-96 Well Permeable (Corning, 3391) • 7. Resistance detector (Millipore, Millicell® ERS-2) • 8. Cellometer® Vision (Nexcelom Bioscience) • 9. Infinite 200 PRO microplate reader (Tecan, Infinite M200PRO) • 10. Positive control compound metoprolol (Sinopharm 100084-201403), erythromycin (MCE 84550), and cimetidine (Sinopharm 100158-201406) • 11. ABI QTrap 5500 liquid chromatography-mass spectrometry system
• 1. […] Evaluation of integrity of monolayer cell membrane • 1) The cells fused and differentiated after 14 days of culture and were ready for a transport experiment. • 2) The resistance of the monolayer membrane was measured using a resistance detector. The resistance of each well was recorded. • 3) After measurement, the Transwell culture plate was re-incubated. • 4) The TEER value was calculated: […]

## C[C@]12C=CC(=O)C=C1CC[C@@H]1[C@@H]2[C@@H](O)C[C@@]2(C)[C@H]1C[C@H]1O[C@@H](c3ccc(Cc4cc(N)c5c(c4)CCO5)cc3)O[C@]12C(=O)CO [Compound 009, (6aR,6bS,7S,8aS,8bS,10R,11aR,12aS,12bS)-10-(4-((7-amino-2,3-dihydrobenzofuran-5-yl)methyl)phenyl)-7-hydroxy-8b-(2-hydroxyacetyl)-6a,8a-dimethyl-6a,6b,7,8,8a,8b,11a,12,12a,12b-decahydro-1H-naphtho[2′,1′:4,5]indeno[1,2-d][1,3]dioxolan-4(2H)-one]
Apical to basal
  Papp A→B at 2 h, 10 μM: 7.3 nm/s
Basal to apical
  Papp B→A at 2 h, 10 μM: 38.6 nm/s
